Experimental data reported in US12344623B2, “Thiazolopyridine derivatives as adenosine receptor antagonists” (Merck Patent GmbH, priority 2019, dated 2025).

Experiments:
Type in all cases: cell-based
[1] = target: T1, human A2B receptor (Homo sapiens, UniProt P29275); assay: Functional A2B receptor activity, recombinant HEK293 cells, cAMP (HTRF), agonist NECA; details: read-out: Functional A2B receptor activity, HEK293, cAMP, IC50
T1 construct: expressed in transfected cells; host or cells: HEK293
T1 sequence (P29275 1-332): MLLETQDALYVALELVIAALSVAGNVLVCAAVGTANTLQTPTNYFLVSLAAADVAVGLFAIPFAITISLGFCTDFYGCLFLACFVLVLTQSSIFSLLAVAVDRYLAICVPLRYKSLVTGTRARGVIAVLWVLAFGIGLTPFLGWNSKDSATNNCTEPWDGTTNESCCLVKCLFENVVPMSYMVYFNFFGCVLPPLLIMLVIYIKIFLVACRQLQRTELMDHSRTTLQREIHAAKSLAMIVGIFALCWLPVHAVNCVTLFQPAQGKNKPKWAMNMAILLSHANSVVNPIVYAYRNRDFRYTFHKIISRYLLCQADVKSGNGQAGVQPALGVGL
Method in brief: (§1)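 Forskolin, test compounds and agonist were added together to the cells and incubated for 30 min. Cellular cAMP was then quantified by HTRF. Raw signals were normalized to an inhibitor control and a neutral DMSO control, and the normalized data were curve-fitted.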

[2] = target: T2, human A1 receptor (Homo sapiens, UniProt P30542); assay: Functional A1 receptor activity, recombinant CHO cells, cAMP (HTRF), forskolin, agonist CPA; details: recombinant CHO cells, forskolin, agonist CPA; read-out: Functional A1 receptor activity, CHO, cAMP, IC50
T2 construct: expressed in transfected cells; host or cells: CHO
T2 sequence (P30542 1-326): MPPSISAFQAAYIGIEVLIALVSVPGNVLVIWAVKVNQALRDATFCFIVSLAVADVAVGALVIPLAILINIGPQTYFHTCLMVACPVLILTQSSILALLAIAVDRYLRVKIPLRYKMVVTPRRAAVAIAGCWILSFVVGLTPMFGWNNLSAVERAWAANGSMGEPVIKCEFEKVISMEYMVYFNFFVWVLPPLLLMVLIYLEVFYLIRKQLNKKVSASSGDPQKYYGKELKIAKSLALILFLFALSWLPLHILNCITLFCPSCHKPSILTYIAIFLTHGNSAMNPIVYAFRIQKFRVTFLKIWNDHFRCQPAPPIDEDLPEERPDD
Method in brief: (§2)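 Gi-coupled readout: CHO cells expressing human A1 or A3 receptor were treated with forskolin, test compound and agonist (CPA for A1, IB-MECA for A3) for 30 min; cellular cAMP was then measured by HTRF. Data were normalized to inhibitor and DMSO controls and curve-fitted.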

[3] = target: T3, human A3 receptor (Homo sapiens, UniProt P0DMS8); assay: Functional A3 receptor activity, recombinant CHO cells, cAMP (HTRF), forskolin, agonist IB-MECA; details: recombinant CHO cells, forskolin, agonist IB-MECA; read-out: Functional A3 receptor activity, CHO, cAMP, IC50
T3 construct: expressed in transfected cells; host or cells: CHO
T3 sequence (P0DMS8 1-318): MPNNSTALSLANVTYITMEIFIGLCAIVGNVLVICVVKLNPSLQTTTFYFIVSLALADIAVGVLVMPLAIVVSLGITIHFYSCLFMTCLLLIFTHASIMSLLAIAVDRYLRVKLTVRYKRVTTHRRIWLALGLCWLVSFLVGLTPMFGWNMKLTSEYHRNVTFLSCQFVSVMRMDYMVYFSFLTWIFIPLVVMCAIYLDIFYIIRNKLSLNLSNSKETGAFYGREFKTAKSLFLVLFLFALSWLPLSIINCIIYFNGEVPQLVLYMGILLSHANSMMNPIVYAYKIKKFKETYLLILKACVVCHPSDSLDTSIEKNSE
Method in brief: as §2

[4] = tested on: mouse Pan T cells; assay: mTcell assay, IL-2, rescue of cytokine secretion, agonist NECA; details: 24 h
From the text: (§3) Adenosine (Ado) in tumor microenvironment can inhibit T cell activity by signaling through A2A receptors and suppress cytokine secretion by T cells. […] Potential A2A antagonists or A2A/A2B dual antagonists can rescue T cells from this inhibition. Herein, we describe the in vitro system we established using Pan T cells from mouse spleens to screen potential A2A antagonists or A2A/A2B dual antagonists for their activity. The method described involves the use of CD3/CD28 pre-coated beads to stimulate Pan T cells purified from mouse splenocytes, combined with the addition of A2A agonist along with potential A2A or A2A/A2B dual antagonists to evaluate potentiation of T cell cytokine production.
Briefly, mouse Pan T cells are purified from spleens of BALB/c mice using Pan T cell isolation kit Mouse II (MACS Miltenyi biotech Cat # Order no. 130-095-130) according to manufacturer's protocol. The purified T cells are seeded in Nunc™ 96-Well Polystyrene Round Bottom Microwell Plates in RPMI medium with 10% heat inactivated fetal bovine serum. The cells are rested at 37° C. for 1 h before activating with CD3/CD28 pre-coated beads (Dynabeads™ Mouse T-Activator CD3/CD28; Cat #11456D). After 30 min the cells are treated with varying doses of test antagonist(s). […] After 24 h incubation IL-2 levels in the supernatants are measured by ELISAs according to manufacturer's protocol (R&D systems Cat #DY402 (IL-2)). Once the concentrations are calculated, the difference of cytokine concentration of DMSO control and agonist alone control is calculated and the percentage of rescue by each concentration of antagonist is calculated by using Microsoft Excel. These percentages of cytokine rescue in a dose dependent manner of antagonist is plotted in GraphPad Prism software and IC50 is calculated.

[5] = target: T4, human A2A receptor (Homo sapiens, UniProt P29274); assay: Human T cells, endogenous A2A receptor, cAMP, agonist NECA; details: read-out: hTcell data, cAMP, IC50
Method in brief: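 Pan T cells isolated from fresh human blood PBMC, endogenously expressing Gs-coupled A2A, treated with compounds. Cellular cAMP measured by HTRF after 1 h; data normalized to inhibitor control and DMSO neutral control, then curve-fitted.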

[6] = tested on: human T cells; assay: hTcell data, IL-2 (human T cells, IL-2 readout; method not given); details: compounds of the present invention
[7] = target: T4, human A2A receptor; assay: Functional A2A receptor activity, recombinant HEK293 cells, cAMP (HTRF), agonist NECA; parameters: expressed in transfected cells; host or cells: HEK293; details: read-out: Functional A2A receptor activity, HEK293, cAMP, IC50
Method in brief: as §1

[8] = tested on: mouse Pan T cells; assay: mTcell assay, cAMP, agonist NECA; details: Mus musculus, T-cell
From the text: as §3
Pan T-cells are isolated from black 6 mice by manual dissociation and purified using a Miltenyi Pan T-cell isolation kit. The isolated T-cells are activated in 96 well plates for 48 hours using anti-CD3/CD28 beads in T-cell proliferation media.
After 48 hours, the T-cells are pooled, counted and suspended in serum free media containing 0.1% BSA. The cells are plated at 50,000 cells per well in 10 ul of media and incubated for 2 hours at 37° C. Test compounds are dispensed into the wells at a 10-point dose response, starting at a concentration of 10 uM. […] The plates are incubated for 30 minutes at 37° C. and assayed for cAMP levels using the Cisbio cAMP Dynamic2 reagent kit by adding 10 ul of the kit reagents to each well. The plates are incubated for 1 hour at room temperature and the HTRF signal is read on an Envision plate reader. The raw data is analyzed in Genedata Screener and the resulting data is loaded into the database.

T4 sequence (P29274 whole entry): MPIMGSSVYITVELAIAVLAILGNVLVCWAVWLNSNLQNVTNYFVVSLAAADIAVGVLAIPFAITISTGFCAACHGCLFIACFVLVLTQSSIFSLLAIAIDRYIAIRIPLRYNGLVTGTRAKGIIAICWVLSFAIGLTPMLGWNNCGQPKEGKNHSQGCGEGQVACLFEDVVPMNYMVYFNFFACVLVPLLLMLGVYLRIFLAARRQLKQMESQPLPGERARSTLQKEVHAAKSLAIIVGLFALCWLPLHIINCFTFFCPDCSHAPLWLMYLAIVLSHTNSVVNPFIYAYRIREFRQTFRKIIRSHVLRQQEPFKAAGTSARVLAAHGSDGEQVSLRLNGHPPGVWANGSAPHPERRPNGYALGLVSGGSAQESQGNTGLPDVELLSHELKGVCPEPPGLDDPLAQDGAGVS

SMILES	IC50 [1]	IC50 [2]	IC50 [3]	IC50 ([4]; Mus musculus, T-cell)	IC50 [5]	IC50 ([6]; T-cell)	IC50 [7]	IC50 [8]	IC50 ([4]; mouse Pan T cells, CD3/CD28 activated, NECA 1 μM, IL-2 rescue)	IC50 [6]
COc1nc(F)c(N2CCOCC2)c2sc(NC(=O)N3CC[C@@]4(CCCOC4)C3)nc12 [Compound 11, (5S)-N-[6-fluoro-4-methoxy-7-(morpholin-4-yl)-[1,3]thiazolo[4,5-c]pyridin-2-yl]-7-oxa-2-azaspiro[4.5]decane-2-carboxamide]	< 10 nM	> 1000 nM	> 1000 nM	< 100 nM	< 10 nM	< 10 nM	< 10 nM			
COc1nc(F)c(-c2ccccc2)c2sc(NC(=O)N3CC[C@]4(CCCOC4)C3)nc12 [Compound 12, (R)-7-Oxa-2-aza-spiro[4.5]decane-2-carboxylic acid (6-fluoro-4-methoxy-7-phenyl-thiazolo[4,5-c]pyridin-2-yl)-amide]	< 10 nM	< 1000 nM	> 1000 nM	< 10 nM	< 10 nM	< 10 nM	< 10 nM	< 10 nM		
COc1ncc(C2=CCOCC2)c2sc(NC(=O)N3CCC4(CCCOC4)C3)nc12 (stereo not drawn) [Compound 15, 7-Oxa-2-aza-spiro[4.5]decane-2-carboxylic acid [7-(3,6-dihydro-2H-pyran-4-yl)-4-methoxy-thiazolo[4,5-c]pyridin-2-yl]-amide]	< 10 nM	> 1000 nM	> 1000 nM				< 10 nM		< 100 nM	< 10 nM
COc1nc(F)c(N2CCOCC2)c2sc(NC(=O)N3CC[C@]4(CCOC4)C3)nc12 [Compound 19, (5S)-N-[6-fluoro-4-methoxy-7-(morpholin-4-yl)-[1,3]thiazolo[4,5-c]pyridin-2-yl]-2-oxa-7-azaspiro[4.4]nonane-7-carboxamide]	< 100 nM	> 1000 nM	> 1000 nM	< 100 nM	< 10 nM	< 100 nM	< 10 nM	< 100 nM		
COc1nc(F)c(C2CCOCC2)c2sc(NC(=O)c3ccc(C(=O)N(C)C)cc3)nc12 [Compound 20, N-[6-Fluoro-4-methoxy-7-(tetrahydro-pyran-4-yl)-thiazolo[4,5-c]pyridin-2-yl]-N′,N′-dimethyl-terephthalamide]	< 10 nM	> 1000 nM	> 1000 nM	< 100 nM	< 10 nM	< 10 nM	< 10 nM	< 100 nM		
COc1nc(F)c(C2CCOCC2)c2sc(NC(=O)N3CCC4(CCOCC4)C3)nc12 [Compound 26, 8-Oxa-2-aza-spiro[4.5]decane-2-carboxylic acid [6-fluoro-4-methoxy-7-(tetrahydro-pyran-4-yl)-thiazolo[4,5-c]pyridin-2-yl]-amide]	< 100 nM	> 1000 nM	> 1000 nM	< 10 nM	< 10 nM	< 100 nM	< 10 nM	< 10 nM		
COc1nc(F)c(-c2ccc(F)cc2)c2sc(NC(=O)N3CCC4(CCOCC4)C3)nc12 [Compound 29, 8-Oxa-2-aza-spiro[4.5]decane-2-carboxylic acid [6-fluoro-7-(4-fluoro-phenyl)-4-methoxy-thiazolo[4,5-c]pyridin-2-yl]-amide]	< 10 nM	> 1000 nM	> 1000 nM	< 10 nM	< 10 nM	< 10 nM	< 10 nM	< 10 nM		
COc1nc(F)c(C2CCOCC2)c2sc(NC(=O)N3CC[C@@]4(CCCOC4)C3)nc12 [Compound 35, (5S)-N-[6-fluoro-4-methoxy-7-(oxan-4-yl)-[1,3]thiazolo[4,5-c]pyridin-2-yl]-7-oxa-2-azaspiro[4.5]decane-2-carboxamide]	< 100 nM	> 1000 nM	> 1000 nM	< 10 nM	< 10 nM	< 100 nM	< 10 nM	< 10 nM		
COc1ncc(-c2cccc(N)c2)c2sc(NC(=O)N3CCC4(CCOCC4)C3)nc12 [Compound 39, 8-Oxa-2-aza-spiro[4.5]decane-2-carboxylic acid [7-(3-amino-phenyl)-4-methoxy-thiazolo[4,5-c]pyridin-2-yl]-amide]	< 10 nM	> 1000 nM	> 1000 nM	< 10 nM	< 10 nM	< 100 nM	< 10 nM	< 10 nM		
